Laboratory results reported in patent publication US12528812B2 (Genentech, Inc., priority 2020, dated 2026).

Assays:
[1] = target: Recombinant human JAK2 kinase domain protein (Residues 812-1132) (Homo sapiens, UniProt O60674); experiment: JAK2 biochemical assay (LabChip mobility shift, Ki); settings: Biochem JAK2 Ki
[2] = tested on: IL-13-stimulated STAT6 phosphorylation in human lung bronchial epithelial BEAS-2B cell line; experiment: P-STAT6 BEAS-2B + IL-13 cell assay; format: cell-based; settings: Homo sapiens, BEAS-2B, BEAS2B cells, IL13 stimulation; read-out: Cellular JAK1 PSTAT6 BEAS2B + IL13
How it was run: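 Phospho-STAT6 (Tyr641) was quantified in lysates by MSD electrochemiluminescence after human IL-13 challenge (250 ng/mL stock, 15 min, 37 °C). Before that, BEAS-2B cells cultured 48 h had 1 h compound exposure over 10 concentrations. Percent of control was fitted to a four-parameter logistic model to give IC50.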

[3] = target: T1, recombinant human JAK1 kinase domain protein (Residues 854-1154) (Homo sapiens, UniProt P23458); experiment: JAK1 biochemical assay (LabChip mobility shift, Ki); settings: read-out: Biochem JAK1 Ki
T1 construct: human JAK1 kinase domain protein (Residues 854-1154); purchased Proteros Biostructures GmbH (Martinsried, Germany); host or cells: insect cells
T1 sequence (P23458 854-1154): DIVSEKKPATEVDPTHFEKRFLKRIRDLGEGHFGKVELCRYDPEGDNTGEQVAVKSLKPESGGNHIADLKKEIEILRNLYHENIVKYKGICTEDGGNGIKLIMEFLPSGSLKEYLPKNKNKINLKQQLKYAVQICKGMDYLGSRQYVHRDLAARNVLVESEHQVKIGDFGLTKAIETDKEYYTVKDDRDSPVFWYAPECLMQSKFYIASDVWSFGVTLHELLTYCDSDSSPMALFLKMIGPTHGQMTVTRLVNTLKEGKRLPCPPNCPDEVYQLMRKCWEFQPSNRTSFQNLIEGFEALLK

Sequence of Recombinant human JAK2 kinase domain protein (Residues 812-1132) (O60674 812-1132): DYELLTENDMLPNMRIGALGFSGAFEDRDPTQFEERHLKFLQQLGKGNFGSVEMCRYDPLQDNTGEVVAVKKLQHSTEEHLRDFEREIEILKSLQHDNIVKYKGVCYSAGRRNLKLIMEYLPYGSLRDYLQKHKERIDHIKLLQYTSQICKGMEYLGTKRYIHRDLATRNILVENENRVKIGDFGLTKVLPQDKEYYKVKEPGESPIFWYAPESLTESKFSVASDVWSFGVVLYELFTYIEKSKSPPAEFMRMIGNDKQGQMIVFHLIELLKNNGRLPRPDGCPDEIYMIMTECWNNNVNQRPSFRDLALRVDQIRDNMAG

Row | SMILES | Ki [1] | IC50 [2] | Ki [3]
1 | CC(N)c1cccc(Oc2ccc(OC(F)F)c(-c3n[nH]cc3NC(=O)c3cnn4cccnc34)c2)c1 (stereo not drawn) [Example 14, N-[3-[5-[3-(1-aminoethyl)phenoxy]-2-(difluoromethoxy)phenyl]-1H-pyrazol-4-yl]pyrazolo[1,5-a]pyrimidine-3-carboxamide] | 0.38 nM | 26 nM | 0.25 nM
2 | CN1CC(CC#N)(n2cc(Oc3ccc(OC(F)F)c(-c4nn(C)cc4NC(=O)c4cnn5cccnc45)c3)cn2)C1 [Example 117, N-[3-[5-[1-[3-(cyanomethyl)-1-methyl-azetidin-3-yl]pyrazol-4-yl]oxy-2-(difluoromethoxy)phenyl]-1-methyl-pyrazol-4-yl]pyrazolo[1,5-a]pyrimidine-3-carboxamide] | 0.66 nM | 84 nM | 1.5 nM
3 | Cn1cc(NC(=O)c2cnn3cccnc23)c(-c2cc(Oc3ccc(CN4CCCCC4CO)cc3)ccc2OC(F)F)n1 (racemic) [Example 167, N-[3-[2-(difluoromethoxy)-5-[4-[[rac-(2S)-2-(hydroxymethyl)-1-piperidyl]methyl]phenoxy]phenyl]-1-methyl-pyrazol-4-yl]pyrazolo[1,5-a]pyrimidine-3-carboxamide] | 0.34 nM | 26 nM | 1.9 nM
4 | CCn1cc(NC(=O)c2cnn3cccnc23)c(-c2cc(Oc3cc(F)cc(C4(O)CNC4)c3)ccc2OC(F)F)n1 [Example 111, N-[3-[2-(difluoromethoxy)-5-[3-fluoro-5-[3-hydroxyazetidin-3-yl)phenoxy]phenyl]-1-ethyl-pyrazol-4-yl]pyrazolo[1,5-a]pyrimidine-3-carboxamide] | 0.56 nM | 270 nM | 0.38 nM
5 | Cn1cc(NC(=O)c2cnn3cccnc23)c(-c2cc(Oc3ccc(C4(CC#N)CNC4)cc3)ccc2OC(F)F)n1 [Example 148, N-[3-[5-[4-[3-(cyanomethyl)azetidin-3-yl]phenoxy]-2-(difluoromethoxy)phenyl]-1-methyl-pyrazol-4-yl]pyrazolo[1,5-a]pyrimidine-3-carboxamide] | 1.9 nM | 210 nM | 3.6 nM
6 | Cn1cc(NC(=O)c2cnn3cccnc23)c(-c2cc(Oc3cccc([C@@H]4COCCN4)c3)ccc2OC(F)F)n1 (stereo in doubt) [Example 32, N-[3-[2-(difluoromethoxy)-5-[3-[rac-(3R)-morpholin-3-yl]phenoxy]phenyl]-1-methyl-pyrazol-4-yl]pyrazolo[1,5-a]pyrimidine-3-carboxamide] | 0.39 nM | 46 nM | 0.67 nM
7 | CC(=O)c1cc(Oc2ccc(OC(F)F)c(-c3n[nH]cc3NC(=O)c3cnn4cccnc34)c2)ccc1C [Example 44, N-[3-[5-(3-acetyl-4-methyl-phenoxy)-2-(difluoromethoxy)phenyl]-1H-pyrazol-4-yl]pyrazolo[1,5-a]pyrimidine-3-carboxamide] | 0.24 nM | 5.7 nM | 0.45 nM
8 | Cn1cc(NC(=O)c2cnn3cccnc23)c(-c2cc(Oc3cc(CN)ccc3F)ccc2OC(F)F)n1 [Example 28, N-[3-[5-[5-(aminomethyl)-2-fluoro-phenoxy]-2-(difluoromethoxy)phenyl]-1-methyl-pyrazol-4-yl]pyrazolo[1,5-a]pyrimidine-3-carboxamide] | 0.21 nM | 19 nM | 0.19 nM
9 | CN1CCOC(c2cccc(Oc3ccc(OC(F)F)c(-c4nn(C)cc4NC(=O)c4cnn5cccnc45)c3)c2)C1 (stereo not drawn) [Example 30, N-[3-[2-(difluoromethoxy)-5-[3-(4-methylmorpholin-2-yl)phenoxy]phenyl]-1-methyl-pyrazol-4-yl]pyrazolo[1,5-a]pyrimidine-3-carboxamide] | 0.56 nM | 40 nM | 0.93 nM
10 | Cn1cc(NC(=O)c2cnn3cccnc23)c(-c2cc(Oc3ccc(CN4CCC(CO)C4)cc3)ccc2OC(F)F)n1 (racemic) [Example 170, N-[3-[2-(difluoromethoxy)-5-[4-[[rac-(3S)-3-(hydroxymethyl)pyrrolidin-1-yl]methyl]phenoxy]phenyl]-1-methyl-pyrazol-4-yl]pyrazolo[1,5-a]pyrimidine-3-carboxamide] | 1.9 nM | 76 nM | 4.1 nM
11 | C[C@H](O)Cn1cc(Oc2ccc(OC(F)F)c(-c3nn(C)cc3NC(=O)c3cnn4cccnc34)c2)cn1 (racemic) [Example 120, N-[3-[2-(difluoromethoxy)-5-[1-[rac-(2R)-2-hydroxypropyl]pyrazol-4-yl]oxy-phenyl]-1-methyl-pyrazol-4-yl]pyrazolo[1,5-a]pyrimidine-3-carboxamide] | 0.24 nM | 19 nM | 0.35 nM
12 | Cc1ccc(Oc2ccc(OC(F)F)c(-c3n[nH]cc3NC(=O)c3cnn4cccnc34)c2)cc1CC(=O)N(C)C [Example 17, N-[3-[2-(difluoromethoxy)-5-[3-[2-(dimethylamino)-2-oxo-ethyl]-4-methyl-phenoxy]phenyl]-1H-pyrazol-4-yl]pyrazolo[1,5-a]pyrimidine-3-carboxamide] | 0.21 nM | 26 nM | 0.42 nM
13 | Cc1ccc(Oc2ccc(OC(F)F)c(-c3n[nH]cc3NC(=O)c3cnn4cccnc34)c2)cc1 [Example 25, N-[3-[2-(difluoromethoxy)-5-(4-methylphenoxy)phenyl]-1H-pyrazol-4-yl]pyrazolo[1,5-a]pyrimidine-3-carboxamide] | 0.14 nM | 11 nM | 0.39 nM
14 | CN1CC(Cn2cc(Oc3ccc(OC(F)F)c(-c4nn(C)cc4NC(=O)c4cnn5cccnc45)c3)cn2)C1 [Example 127, N-[3-[2-(difluoromethoxy)-5-[1-[(1-methylazetidin-3-yl)methyl]pyrazol-4-yl]oxy-phenyl]-1-methyl-pyrazol-4-yl]pyrazolo[1,5-a]pyrimidine-3-carboxamide] | 1.5 nM | 46 nM | 1.6 nM
15 | Cn1cc(NC(=O)c2cnn3cccnc23)c(-c2cc(Oc3cnn(CC(C)(C)O)c3)ccc2OC(F)F)n1 [Example 124, N-[3-[2-(difluoromethoxy)-5-[1-(2-hydroxy-2-methyl-propyl)pyrazol-4-yl]oxy-phenyl]-1-methyl-pyrazol-4-yl]pyrazolo[1,5-a]pyrimidine-3-carboxamide] | 0.21 nM | 29 nM | 0.39 nM
16 | NCc1cc(Oc2ccc(OC(F)F)c(-c3n[nH]cc3NC(=O)c3cnn4cccnc34)c2)ccc1F [Example 19, N-[3-[5-[3-(aminomethyl)-4-fluoro-phenoxy]-2-(difluoromethoxy)phenyl]-1H-pyrazol-4-yl]pyrazolo[1,5-a]pyrimidine-3-carboxamide] | 0.28 nM | 49 nM | 0.39 nM
17 | CN1CC(O)(c2cccc(Oc3ccc(OC(F)F)c(-c4nn(C5COC5)cc4NC(=O)c4cnn5cccnc45)c3)c2)C1 [Example 100, N-[3-[2-(difluoromethoxy)-5-[3-(3-hydroxy-1-methyl-azetidin-3-yl)phenoxy]phenyl]-1-(oxetan-3-yl)pyrazol-4-yl]pyrazolo[1,5-a]pyrimidine-3-carboxamide] | 0.46 nM | 46 nM | 0.4 nM
